Data: article PMC3265415, “Fatty acyl-CoA reductases of birds” (BMC Biochemistry, 2011)

Key:
Assay in all cases: radio-TLC assay of yeast membrane fraction (alcohols + aldehydes)
Format in all cases: biochemical
[1] = biological target: T1, AdFAR1 (Anser anser, UniProt G9IBF1); settings: pH 6.5, 37 C
T1 construct: gene FAR1; full-length cDNA from uropygial gland in pYES-DEST52 (primer keeps stop codon); S. cerevisiae BY4741 dga1 lro1 membranes
T1 sequence (G9IBF1 1-515): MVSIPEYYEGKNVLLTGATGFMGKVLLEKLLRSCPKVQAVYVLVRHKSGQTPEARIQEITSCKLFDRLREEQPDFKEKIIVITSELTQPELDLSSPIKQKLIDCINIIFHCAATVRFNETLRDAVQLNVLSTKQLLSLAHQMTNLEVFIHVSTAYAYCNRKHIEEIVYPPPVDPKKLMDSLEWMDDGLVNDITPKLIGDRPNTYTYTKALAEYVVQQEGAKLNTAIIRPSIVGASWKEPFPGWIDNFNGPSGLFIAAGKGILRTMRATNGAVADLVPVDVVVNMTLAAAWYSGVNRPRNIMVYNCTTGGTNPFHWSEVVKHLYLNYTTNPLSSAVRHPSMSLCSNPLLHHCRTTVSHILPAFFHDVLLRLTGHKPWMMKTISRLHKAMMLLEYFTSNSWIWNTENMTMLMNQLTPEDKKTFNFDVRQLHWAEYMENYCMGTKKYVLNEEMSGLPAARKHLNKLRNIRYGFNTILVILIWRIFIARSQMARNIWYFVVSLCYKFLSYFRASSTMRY

[2] = biological target: T2, TaFAR1 (Tyto alba, UniProt G9IBF2); settings: labelled 16:0-CoA as co-substrate, NADPH varied; pH 6.5, 37 C
T2 construct: gene FAR1; full-length cDNA from uropygial gland in pYES-DEST52 (primer keeps stop codon); expressed in Saccharomyces cerevisiae BY4741 dga1 lro1; total membrane fraction
T2 sequence (G9IBF2 1-515): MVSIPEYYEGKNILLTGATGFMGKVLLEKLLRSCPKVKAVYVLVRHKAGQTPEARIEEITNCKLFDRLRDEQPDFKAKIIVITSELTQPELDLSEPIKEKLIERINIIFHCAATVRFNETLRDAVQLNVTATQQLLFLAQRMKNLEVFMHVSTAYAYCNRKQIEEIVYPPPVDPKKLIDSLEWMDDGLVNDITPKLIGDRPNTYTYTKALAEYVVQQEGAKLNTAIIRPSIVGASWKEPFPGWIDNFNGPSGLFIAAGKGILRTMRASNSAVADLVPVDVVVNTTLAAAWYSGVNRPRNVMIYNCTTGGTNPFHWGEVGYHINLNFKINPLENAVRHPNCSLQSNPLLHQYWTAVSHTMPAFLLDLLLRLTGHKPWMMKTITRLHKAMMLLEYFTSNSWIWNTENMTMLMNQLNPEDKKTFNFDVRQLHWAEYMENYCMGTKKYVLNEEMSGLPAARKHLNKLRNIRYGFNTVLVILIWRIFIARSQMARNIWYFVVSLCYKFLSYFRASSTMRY

[3] = biological target: T3, GgFAR1 (Gallus gallus, UniProt Q5ZM72); settings: labelled acyl-CoA as co-substrate; pH 6.5, 37 C
T3 construct: gene FAR1; uropygial gland cDNA in pYES-DEST52, S. cerevisiae BY4741 dga1 lro1 membranes
T3 sequence (Q5ZM72 1-515): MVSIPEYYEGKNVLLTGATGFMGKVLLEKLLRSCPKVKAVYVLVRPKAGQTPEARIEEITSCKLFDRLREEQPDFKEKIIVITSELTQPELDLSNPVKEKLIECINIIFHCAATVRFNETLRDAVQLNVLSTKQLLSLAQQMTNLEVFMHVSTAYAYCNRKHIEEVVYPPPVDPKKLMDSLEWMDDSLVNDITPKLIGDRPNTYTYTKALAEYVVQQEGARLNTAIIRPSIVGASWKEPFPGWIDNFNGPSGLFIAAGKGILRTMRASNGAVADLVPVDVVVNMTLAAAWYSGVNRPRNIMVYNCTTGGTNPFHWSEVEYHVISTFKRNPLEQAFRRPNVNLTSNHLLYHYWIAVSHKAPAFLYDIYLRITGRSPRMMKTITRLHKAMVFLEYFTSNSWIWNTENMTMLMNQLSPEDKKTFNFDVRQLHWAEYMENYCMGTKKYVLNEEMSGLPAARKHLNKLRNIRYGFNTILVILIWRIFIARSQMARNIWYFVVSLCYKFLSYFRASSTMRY

[4] = biological target: T4, TaFAR2 (Tyto alba, UniProt G9IBF3); settings: labelled 18:0-CoA as co-substrate; pH 5.5, 37 C
T4 construct: gene FAR2; full-length cDNA from uropygial gland in pYES-DEST52 (primer keeps stop codon); expressed in Saccharomyces cerevisiae BY4741 dga1 lro1; total membrane fraction
T4 sequence (G9IBF3 1-515): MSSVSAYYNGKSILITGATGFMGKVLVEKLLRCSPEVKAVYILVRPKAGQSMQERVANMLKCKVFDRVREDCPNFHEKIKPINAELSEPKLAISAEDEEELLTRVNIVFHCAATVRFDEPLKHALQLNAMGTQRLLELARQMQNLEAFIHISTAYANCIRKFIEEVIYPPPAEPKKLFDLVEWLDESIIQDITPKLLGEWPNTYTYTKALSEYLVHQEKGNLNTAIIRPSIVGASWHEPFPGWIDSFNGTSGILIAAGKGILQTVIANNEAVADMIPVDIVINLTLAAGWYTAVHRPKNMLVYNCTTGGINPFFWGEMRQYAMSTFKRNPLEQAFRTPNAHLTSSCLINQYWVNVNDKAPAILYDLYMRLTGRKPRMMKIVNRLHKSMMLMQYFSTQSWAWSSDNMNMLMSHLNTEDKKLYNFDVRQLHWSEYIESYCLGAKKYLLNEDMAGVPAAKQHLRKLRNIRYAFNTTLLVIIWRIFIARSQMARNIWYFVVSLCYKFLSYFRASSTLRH

[5] = biological target: T5, GgFAR2 (Gallus gallus, UniProt A0A3Q2TWV7, V159M/K457R); settings: labelled acyl-CoA as co-substrate; pH 5.5, 37 C
T5 construct: gene FAR2; uropygial gland cDNA in pYES-DEST52, S. cerevisiae BY4741 dga1 lro1 membranes
T5 sequence (A0A3Q2TWV7 1-515 V159M/K457R): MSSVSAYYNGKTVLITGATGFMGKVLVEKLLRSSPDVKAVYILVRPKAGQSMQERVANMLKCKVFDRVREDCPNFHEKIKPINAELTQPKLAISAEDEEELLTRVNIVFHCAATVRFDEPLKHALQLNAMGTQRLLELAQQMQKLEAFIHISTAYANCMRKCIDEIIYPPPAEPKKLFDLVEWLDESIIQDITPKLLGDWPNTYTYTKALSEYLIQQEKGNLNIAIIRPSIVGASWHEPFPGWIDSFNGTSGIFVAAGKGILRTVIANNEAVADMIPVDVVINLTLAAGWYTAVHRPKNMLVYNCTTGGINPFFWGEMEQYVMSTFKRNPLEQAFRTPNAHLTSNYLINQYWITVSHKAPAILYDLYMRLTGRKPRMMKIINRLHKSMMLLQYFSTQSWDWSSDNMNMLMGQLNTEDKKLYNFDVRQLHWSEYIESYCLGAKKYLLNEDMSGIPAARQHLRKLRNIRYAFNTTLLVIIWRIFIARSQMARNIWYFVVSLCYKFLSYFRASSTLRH

Row | SMILES | radio-TLC assay of yeast membrane fraction (alcohols + aldehydes) ([1]; 20 uM acyl-CoA, 5 mM NADPH, 1 mM MgCl2, 16 uM BSA, labelled compound) | radio-TLC assay of yeast membrane fraction (alcohols + aldehydes) [2] | radio-TLC assay of yeast membrane fraction (alcohols + aldehydes) [3] | radio-TLC assay of yeast membrane fraction (alcohols + aldehydes) [4] | radio-TLC assay of yeast membrane fraction (alcohols + aldehydes) [5] | radio-TLC assay of yeast membrane fraction (alcohols + aldehydes) ([1]; labelled acyl-CoA as co-substrate)
1 | CCCCCCCCCCCCCCCC(=O)SCCNC(=O)CCNC(=O)[C@H](O)C(C)(C)COP(=O)(O)OP(=O)(O)OC[C@H]1O[C@@H](n2cnc3c(N)ncnc32)[C@H](O)[C@@H]1OP(=O)(O)O [16:0-CoA] | only AdFAR1 of goose was almost equally active with all substrates |  |  |  |  | 
2 | NC(=O)C1=CN([C@@H]2O[C@H](COP(=O)(O)OP(=O)(O)OC[C@H]3O[C@@H](n4cnc5c(N)ncnc54)[C@H](OP(=O)(O)O)[C@@H]3O)[C@@H](O)[C@H]2O)C=CC1 [NADPH] |  | All FAR enzymes required NADPH as electron donor | All FAR enzymes required NADPH as electron donor | All FAR enzymes required NADPH as electron donor | All FAR enzymes required NADPH as electron donor | All FAR enzymes required NADPH as electron donor
